# Measured values from patent publication US6369093B1, “Pyrazole carboxanilide fungicide” (Bayer Aktiengesellschaft, priority 1998, dated 2002).
# Experiments:
# Sphaerotheca fuliginea = test: Sphaerotheca test (cucumber)/protective; format: in vivo; settings: cucumber plants, protective spray, application rate 100 g/ha, evaluation 10 days after inoculation
# Procedure: (§1) [table] To produce a suitable preparation of active compound, 1 part by weight of active compound is mixed with the stated amounts of solvent and emulsifier, and the concentrate is diluted with water to the desired concentration. To test for protective activity, young plants are sprayed with the preparation of active compound at the stated application rate. Afier the spray coating has dried on, the plants are inoculated with an aqueous spore suspension of Sphaerotheca fuliginea. The plants are then placed at about 23° C. and a relative atmospheric humidity of about 70% in a greenhouse. Evaluation is carried out 10 days after the inoculation. 0% means an efficacy which corresponds to that of the control, whereas an efficacy of 100% means that no infection is observed.
# Venturia inaequalis = test: Venturia test (apple)/protective; format: in vivo; settings: apple plants, protective spray, application rate 100 g/ha, evaluation 12 days after inoculation
# Procedure: To produce a suitable preparation of active compound, 1 part by weight of active compound is mixed with the stated amounts of solvent and emulsifier, and the concentrate is diluted with water to the desired concentration.
# To test for protective activity, young plants are sprayed with the preparation of active compound at the stated application rate. After the spray coating has dried on, the plants are inoculated with an aqueous conidia suspension of the causative organism of apple scab Venturia inaequalis and then remain in an incubation cabin at 20° C. and 100% relative atmospheric humidity for 1 day.
# The plants are then placed in a greenhouse at about 21° C. and a relative atmospheric humidity of about 90%.
# Evaluation is carried out 12 days after the inoculation. 0% means an efficacy which corresponds to that of the control, whereas an efficacy of 100% means that no infection is observed.
# Podosphaera leucotricha = test: Podosphaera test (apple)/protective; format: in vivo; settings: apple plants, protective spray, application rate 100 g/ha, evaluation 10 days after inoculation
# Procedure: as §1, with “After” for “Afier”, “the causative organism of apple mildew Podosphaera leucotricha.” for “Sphaerotheca fuliginea.”, “placed in a greenhouse” for “placed”, “70%.” for “70% in a greenhouse.”
# Pyrenophora teres = Pyrenophora teres test (barley)/protective; format: in vivo; settings: barley plants, protective spray, application rate 250 g/ha, evaluation 7 days after inoculation
# Procedure: [table] To produce a suitable preparation of active compound, 1 part by weight of active compound is mixed with the stated amounts of solvent and emulsifier, and the concentrate is diluted with water to the desired concentration. To test for protective activity, young plants are sprayed with the preparation of active compound at the stated application rate. After the spray coating has dried on, the plants are sprayed with a conidia suspension of Pyrenophora teres. The plants remain in an incubation cabin at 20° C. and 100% relative atmospheric humidity for 48 hours. The plants are then placed in a greenhouse at a temperature of about 20° C. and a relative atmospheric humidity of about 80%. Evaluation is carried out 7 days after the inoculation. 0% means an efficacy which corresponds to that of the control, whereas an efficacy of 100% means that no infection is observed.
# [1] = test system: Erysiphe graminis f. sp. hordei; test: Erysiphe test (barley)/protective; format: in vivo; settings: barley plants, protective spray, application rate 750 g/ha, evaluation 7 days after inoculation
# Procedure: Erysiphe test (barley)/protective [table] To produce a suitable preparation of active compound, 1 part by weight of active compound is mixed with the stated amounts of solvent and emulsifier, and the concentrate is diluted with water to the desired concentration. To test for protective activity, young cereal plants are sprayed with the preparation of active compound at the stated application rate. 1 day after the treatment, the plants are inoculated with spores of Erysiphe graminis f. sp. hordei. The plants are then placed in a greenhouse at 70% relative atmospheric humidity and a temperature of 18° C. Evaluation is carried out 7 days after the inoculation. 0% means an efficacy which corresponds to that of the control, whereas an efficacy of 100% means that no infection is observed.
SMILES,Efficacy in % (Sphaerotheca fuliginea) [%],Efficacy in % (Venturia inaequalis) [%],Efficacy in % (Podosphaera leucotricha) [%],Efficacy in % (Pyrenophora teres) [%],melting point [°C],Efficacy in % [1] [%]
"Cc1nn(C)c(F)c1C(=O)Nc1ccccc1-c1ccc(Br)cc1 [Example 1, N-[2-(4-bromophcnyl)]-1,3-dimethyl-5-fluoro-pyrazole-4-carboxanilide]",95,100,100,100,127,100
Cc1ccccc1-c1ccccc1NC(=O)c1c(C)nn(C)c1F [Example 2],–,–,96,–,100,90
Cc1nn(C)c(F)c1C(=O)Nc1ccccc1-c1ccccc1C(F)(F)F [Example 4],–,–,97,–,103,–
Cc1nn(C)c(F)c1C(=O)Nc1ccccc1-c1ccccc1F [Example 5],–,–,99,–,113,–
Cc1ccc(-c2ccccc2NC(=O)c2c(C)nn(C)c2F)cc1Cl [Example 8],–,100,98,100,–,–
Cc1nn(C)c(F)c1C(=O)Nc1ccccc1-c1cccc(C(F)(F)F)c1 [Example 9],94,97,100,100,116,–
Cc1cccc(NC(=O)c2c(C)nn(C)c2F)c1-c1ccccc1 [Example 16],–,–,–,–,144,94
Cc1cccc(NC(=O)c2c(C)nn(C)c2F)c1-c1ccc(Cl)cc1 [Example 17],–,–,–,100,177,100
